The test system of assay [1] is KHOSR2 cells. Briefly: In vitro cytotoxicity MTT assay, KHOSR2. To be noted: Homo sapiens.
The subject of another assay is PARP. Briefly: Cellular apoptosis assay: cleavage of PARP by Western blot. The class given is cell-based, human. To be noted: KHOS and KHOSR2.
The subject of the next assay is U-2OS cells. Briefly: In vitro cytotoxicity MTT assay, U-2OS. The settings on record: Homo sapiens, U2OS, read-out: IC50 anti-proliferative activity.
Assay [2] relates to KHOSR2 cells. Briefly: Fluorescence microscopy of cellular doxorubicin uptake. The class given is cell-based, human. To be noted: 3 hr incubation. As to the method:
For cellular uptake studies, KHOS and KHOSR2 cells were seeded at densities of 5×10^5 cells/well in 6 well plates. MDR1 siRNA was applied to a well of KHOSR2 and incubated for 48 h. Following the incubation, doxorubicin was added to each well and was incubated for additional 3 hr. After incubation, the cells were washed, suspended in fresh RPMI 1640, then visualized on a Nikon Eclipse Ti-U fluorescence microscope equipped with a SPOT RT digital camera (Diagnostic Instruments, Inc., Sterling Heights, Mich.). Fluorescence intensity and cellular localization was analyzed at a wavelength of 488 nm in triplicate in random, different fields.
Cellular uptake studies were based on the fluorescence microscopic procedures of Venne et al. (Cancer Res. 56:3626-3629 (1996)). KHOS and KHOSR2 cells were seeded at densities of 5×10^5 cells/well in 6 well plates and incubated for 24 hr to allow cell attachment. […] After incubation, the cells were washed and resuspended with PBS and were then visualized on a Nikon Eclipse Ti-U fluorescence microscope (Nikon Corp.) equipped with a SPOT RT digital camera (Diagnostic Instruments, Inc., Sterling Heights, Mich.). Fluorescence intensity and cellular localization was analyzed at a wavelength of 488 nm in triplicate different fields at random.

The subject of a further assay is U-2OSR2 cells. Briefly: In vitro cytotoxicity MTT assay, U-2OSR2. To be noted: Homo sapiens. The class given is cell-based. On the technique in general: Tetrazolium dyes change colour on reduction, which living cells bring about.

This note sets out measurements from US9173840B2, “Multifunctional self-assembling polymeric nanosystems” (Northeastern University, priority 2008, dated 2015).

Like-named read-outs stand apart in the source and are kept apart here.

Broadly, the IC50 is the concentration needed to halve the response being measured.

Text for PARP: Whole-cell lysates were immunoblotted with specific antibodies to PARP (Cell Signaling Technology) and its cleavage products. Positive immunoreactions were detected using Super Signal® West Pico Chemiluminescent Substrate. Bands were semiquantified by reverse image scanning densitometry with PhotoShop 7.0 (Adobe, San Jose, Calif.). An area of the gel image that was devoid of signal was assigned to be the background value. Each band of the protein representing cleaved PARP from KHOS or KHOSR2 treated with either doxorubicin, alone, or nanoparticle-loaded with doxorubicin at various concentrations, were analyzed for the density beyond background level. To ensure that the loading of the protein was equal and differences were not being observed because of one specimen having more protein than another, the band corresponding to β-actin was determined for each protein. The density of the protein band was normalized to the β-actin band for the protein and the ratio of the cleaved PARP was normalized by dividing by the ratio of the actin corresponding to each cleaved PARP.

For the compound `COc1cccc2c1C(=O)c1c(O)c3c(c(O)c1C2=O)C[C@@](O)(C(=O)CO)C[C@@H]3O[C@H]1C[C@H](N)[C@H](O)[C@H](C)O1` [doxorubicin], the IC50 stood at 0.1 µM in the assay with KHOSR2 cells [1] (MDR1, read-out: IC50 of doxorubicin co-treated with MDR1 siRNA-loaded nanoparticles); 3 µM with KHOSR2 cells [1] (read-out: IC50 anti-proliferative activity); 10 µM in the assay with KHOSR2 cells [1] (read-out: IC50 of doxorubicin, alone); 0.3 µM with U-2OS cells; 0.06 µM in the assay with U-2OSR2 cells (U-2OSR2, Example 1, nanoparticles loaded with 100 nM MDR1 siRNA, read-out: IC50 for doxorubicin co-treated with the MDR1 siRNA-loaded nanoparticles); 6 µM in the assay on U-2OSR2 cells (U-2OSR2, Example 1, read-out: IC50 for doxorubicin, alone). The IC50 with U-2OSR2 cells (U-2OSR2, Example 2, FIG. 17D, read-out: IC50 anti-proliferative activity) is 6 µM. The “cleavage of PARP / apoptosis induction” value with PARP is “higher concentrations of doxorubicin, alone, induced apoptosis”. In the assay on KHOSR2 cells [2] (drug-resistant cell line, Example 2), the “subcellular distribution of doxorubicin fluorescence” value is “primarily concentrated in the cytoplasm”. Moreover, in the assay with KHOSR2 cells [2] (drug-resistant osteosarcoma cells), the “subcellular distribution of doxorubicin fluorescence, free doxorubicin” value is listed as “primarily concentrated in the cytoplasm”.
